According to patent US20090281054A1, “COMPOSITIONS AND METHODS COMPRISING CAPURAMYCIN ANALOGUES” (priority 2008, published 2009):
In brackets after ≈: the same amount, converted by molar mass. Like-named read-outs stand apart in the source and are kept apart here.

What was measured:
[1] = test system: M. avium complex (MAC); assay: MIC by microdilution method in 7H9 broth; format: cell-based; conditions: for MIC90: value in square brackets
[2] = test system: M. abscessus (MAB; ATCC 700869); assay: MIC by microdilution method in 7H9 broth; format: cell-based; conditions: MAB 700869
[3] = test system: M. smegmatis (MSMG; MC2155); assay: MIC by microdilution method in 7H9 broth; format: cell-based; conditions: 72 hr
[4] = test system: MAC; assay: Synergy by checkerboard titration (microdilution); format: cell-based, M. avium complex; conditions: for MIC: Mycobacterium avium, drug alone
[5] = test system: M. kansaii (MKN; ATCC12478 & 35775); assay: MIC by microdilution method in 7H9 broth; format: cell-based, M. kansasii
[6] = test system: MTB in J774A.1 cells; assay: Intracellular activity of SQ641 with efflux pump blockers; format: cell-based, Mycobacterium tuberculosis; conditions: J774A.1 cells; VE and CsA at 10 μM
[7] = test system: intracellular MTB (MTBp-SMT1) in J774A.1 macrophages; assay: Intracellular activity of SQ641-TPGS micelles; format: cell-based, Mycobacterium tuberculosis
[8] = test system: M. smegmatis; assay: Synergy by checkerboard titration (microdilution); format: cell-based; conditions: M. smegmatis
[9] = Mycobacterium avium, MAC strain 100, read-out: MIC
[10] = Mycobacterium avium, MAC strain 101, read-out: MIC
[11] = Mycobacterium avium, MAC strain 104, read-out: MIC
[12] = Mycobacterium avium, MAC strain 109, read-out: MIC
[13] = Mycobacterium avium, MAC strain A5, read-out: MIC
[14] = Mycobacterium avium, MAC strain JSH1, read-out: MIC
[15] = Mycobacterium avium, MAC strain NIH C1-1, read-out: MIC
[16] = Mycobacterium avium, MAC strain NIH C1-2, read-out: MIC
[17] = Mycobacterium avium, MAC strain NIH C1-3, read-out: MIC
[18] = Mycobacterium avium, MAC strain NIH C1-4, read-out: MIC
[19] = Mycobacterium avium, MAC isolates, read-out: MIC90
[20] = Mycobacteroides abscessus, ATCC700869, read-out: MIC
[21] = Mycolicibacterium smegmatis, MC2155|MC^2155, MSMG MC^2155, read-out: MIC
[22] = Mycobacterium kansasii, ATCC 12478 / ATCC 35775, MKN ATCC35775, read-out: MIC
[23] = Mycobacterium kansasii, MKN ATCC12478, read-out: MIC
[24] = Mycobacterium avium, 336 h, MAC isolates, 2 wk, read-out: MIC (range)

**Q.** How did the MIC [1, 9] turn out when NCC[C@H](O)C(=O)N[C@@H]1C[C@H](N)[C@@H](O[C@H]2O[C@H](CN)[C@@H](O)[C@H](O)[C@H]2O)[C@H](O)[C@H]1O[C@H]1O[C@H](CO)[C@@H](O)[C@H](N)[C@H]1O [AMK, amikacin, reference compound] was run?
**A.** Its MIC is 8 µg/mL (≈ 13.7 µM).

**Q.** And the MIC [1, 10]?
**A.** Its MIC is 2 µg/mL (≈ 3.42 µM).

**Q.** What about the MIC [1, 11] of the same compound?
**A.** The MIC was 16 µg/mL (≈ 27.3 µM).

**Q.** And the MIC [1, 12]?
**A.** The MIC was 1 µg/mL (≈ 1.71 µM).

**Q.** What about the MIC [1, 13] of the same compound?
**A.** The MIC was 4 µg/mL (≈ 6.83 µM).

**Q.** What about the MIC [1, 14] of the same compound?
**A.** The MIC was 8 µg/mL (≈ 13.7 µM).

**Q.** What about the MIC [1, 15] of the same compound?
**A.** The MIC was 8 µg/mL (≈ 13.7 µM).

**Q.** What about the MIC [1, 16] of the same compound?
**A.** The MIC was 32 µg/mL (≈ 54.6 µM).

**Q.** What about the MIC [1, 17] of the same compound?
**A.** The MIC was 8 µg/mL (≈ 13.7 µM).

**Q.** And the MIC [1, 18]?
**A.** The MIC was 4 µg/mL (≈ 6.83 µM).

**Q.** What about the MIC90 [1, 19] of the same compound?
**A.** The MIC90 was 16 µg/mL (≈ 27.3 µM).

**Q.** What about the MIC [2, 20] of the same compound?
**A.** The MIC was 4 µg/mL (≈ 6.83 µM).

**Q.** What about the MIC [3, 21] of the same compound?
**A.** The MIC was 0.5 µg/mL (≈ 0.854 µM).

**Q.** And the “MIC Combination” value ([4]; MAC A5, combination SQ641 + AMK)?
**A.** Its value is 0.5 µg/mL.

**Q.** What about the “MIC Combination” value ([4]; MAC JSH1, combination SQ641 + AMK) of the same compound?
**A.** Its value is 8.0 µg/mL.

**Q.** And the “MIC Combination” value ([4]; MAC NIH C1-1, combination SQ641 + AMK)?
**A.** Its value is 4.0 µg/mL.

**Q.** And the MIC ([4]; MAC A5)?
**A.** The MIC was 2 µg/mL.

**Q.** What about the MIC ([4]; MAC JSH1) of the same compound?
**A.** Its MIC is 16 µg/mL.

**Q.** What about the MIC ([4]; MAC NIH C1-1) of the same compound?
**A.** Its MIC is 8 µg/mL.

**Q.** What about the MIC [5, 22] of the same compound?
**A.** Its MIC is 2 µg/mL (≈ 3.42 µM).

**Q.** What about the MIC [5, 23] of the same compound?
**A.** The MIC was 2 µg/mL (≈ 3.42 µM).

**Q.** How did the “MIC range” value ([1]; MAC isolates, 2 wk) turn out when O=C(O)c1cn(C2CC2)c2cc(N3CCNCC3)c(F)cc2c1=O [CIP, reference compound] was run?
**A.** Its value is 0.125 to 32 µg/mL.

**Q.** And the MIC90 ([1]; MAC isolates)?
**A.** Its MIC90 is 2 µg/mL (≈ 6.04 µM).

**Q.** And the MIC [2]?
**A.** Its MIC is greater than 32 µg/mL.

**Q.** What about the MIC ([3]; MSMG MC^2155) of the same compound?
**A.** Its MIC is 0.5 µg/mL (≈ 1.51 µM).

**Q.** What about the MIC ([5]; MKN ATCC12478) of the same compound?
**A.** The MIC was 2 µg/mL (≈ 6.04 µM).

**Q.** And the MIC ([5]; MKN ATCC35775)?
**A.** Its MIC is 0.25 µg/mL (≈ 0.754 µM).

**Q.** What does the source list for CC[C@H]1OC(=O)[C@H](C)[C@@H](O[C@H]2C[C@@](C)(OC)[C@@H](O)[C@H](C)O2)[C@H](C)[C@@H](O[C@@H]2O[C@H](C)C[C@H](N(C)C)[C@H]2O)[C@](C)(OC)C[C@@H](C)C(=O)[C@H](C)[C@@H](O)[C@]1(C)O [CLA, clarithromycin, reference compound]?
**A.** MIC [1, 24]: 0.062 to 32 µg/mL (≈ 0.0829 to 42.8 µM); MIC [1, 9]: 0.25 µg/mL (≈ 0.334 µM); MIC [1, 10]: 0.125 µg/mL (≈ 0.167 µM); MIC [1, 11]: 0.5 µg/mL (≈ 0.668 µM); MIC [1, 12]: 0.062 µg/mL (≈ 0.0829 µM); MIC [1, 13]: 0.125 µg/mL (≈ 0.167 µM); MIC [1, 14]: 2 µg/mL (≈ 2.67 µM); MIC [1, 15]: 1 µg/mL (≈ 1.34 µM); MIC [1, 16]: 0.25 µg/mL (≈ 0.334 µM); MIC [1, 17]: 32 µg/mL (≈ 42.8 µM); MIC [1, 18]: 1 µg/mL (≈ 1.34 µM); MIC90 [1, 19]: 2 µg/mL (≈ 2.67 µM); MIC [2, 20]: > 32 µg/mL; MIC [3, 21]: 2 µg/mL (≈ 2.67 µM); MIC Combination ([4]; MAC A5, combination SQ641 + CLA): 0.031 µg/mL; MIC Combination ([4]; MAC JSH1, combination SQ641 + CLA): 1 µg/mL; MIC Combination ([4]; MAC NIH C1-1, combination SQ641 + CLA): 2.0 µg/mL; MIC ([4]; MAC A5): 0.125 µg/mL; MIC ([4]; MAC JSH1): 1 µg/mL; MIC ([4]; MAC NIH C1-1): 2 µg/mL; MIC [5, 22]: 0.25 µg/mL (≈ 0.334 µM); MIC [5, 23]: 0.25 µg/mL (≈ 0.334 µM)

**Q.** Cc1ccc(C)c(OCCCC(C)(C)C(=O)O)c1 [GF, gemfibrozil, reference compound] was tested. Which “Effect of efflux pump blocker on intracellular activity of SQ641 against MTB” value [6] did it give?
**A.** Its value is “only moderate effects”.

**Q.** What does the source list for COc1c(N2C[C@@H]3CCCN[C@@H]3C2)c(F)cc2c(=O)c(C(=O)O)cn(C3CC3)c12 [MOX, moxifloxacin, reference compound]?
**A.** MIC [2, 20]: > 32 µg/mL; MIC ([3]; Mycolicibacterium smegmatis, MC2155|MC^2155, read-out: MIC): 0.125 µg/mL (≈ 0.311 µM); MIC [5, 22]: 0.031 µg/mL (≈ 0.0772 µM); MIC [5, 23]: 0.125 µg/mL (≈ 0.311 µM)

**Q.** CCCN(CCC)S(=O)(=O)c1ccc(C(=O)O)cc1 [PB, probenecid, reference compound] was tested. Which “Effect of efflux pump blocker on intracellular activity of SQ641 against MTB” value [6] did it give?
**A.** Its value is “only moderate effects”.

**Q.** How did the MIC [1, 24] turn out when CO[C@H]1/C=C/O[C@@]2(C)Oc3c(C)c(O)c4c(O)c(c(/C=N/N5CCN(C)CC5)c(O)c4c3C2=O)NC(=O)/C(C)=C\C=C\[C@H](C)[C@H](O)[C@@H](C)[C@@H](O)[C@@H](C)[C@H](OC(C)=O)[C@@H]1C [RIF, rifampicin, reference compound] was run?
**A.** Its MIC is 0.062 to 4 µg/mL (≈ 0.0753 to 4.86 µM).

**Q.** What about the MIC90 [1, 19] of the same compound?
**A.** Its MIC90 is 1 µg/mL (≈ 1.22 µM).

**Q.** What about the MIC [2, 20] of the same compound?
**A.** Its MIC is greater than 32 µg/mL.

**Q.** What about the “Mean RLU at Day 7” value [7] of the same compound?
**A.** Its value is 22 RLU.

**Q.** What about the “MIC Combination” value ([8]; combination SQ641 + RIF) of the same compound?
**A.** Its value is 2.0 µg/mL.

**Q.** What about the MIC ([8]; Mycolicibacterium smegmatis, drug alone) of the same compound?
**A.** Its MIC is 8 µg/mL.

**Q.** And the MIC [3, 21]?
**A.** The MIC was 8 µg/mL (≈ 9.72 µM).

**Q.** What about the MIC ([5]; Mycobacterium kansasii, ATCC12478) of the same compound?
**A.** The MIC was 0.125 µg/mL (≈ 0.152 µM).

**Q.** And the MIC ([5]; Mycobacterium kansasii, ATCC 12478 / ATCC 35775)?
**A.** Its MIC is 0.125 µg/mL (≈ 0.152 µM).
